Patent publication US20050004079A1, “Pharmaceutical compositions for intranasal administration of [2-(8,9-dioxo-2,6-diazabicyclo[5.2.0]non-1(7)-en-2-yl)alkyl] phosphonic acid and derivatives and methods of use thereof” (Wyeth, priority 2003, published 2005)
Like-named read-outs stand apart in the source and are kept apart here.

Experiments:
[1] = system: Prostaglandin E2-induced thermal hypersensitivity; assay: In vivo efficacy in rats: Prostaglandin E2-induced thermal hypersensitivity (warm-water tail withdrawal); design: species or system Spraque-Dawley rats; conditions: for % MPE (reversal of PGE2-induced thermal hypersensitivity): rat, 30 min before PGE2
Description: Subjects: Individually housed Spraque-Dawley rats had free access to rat chow and water. A 12-h light/12-h dark cycle was in effect (lights on from 6:00 am to 6:00 pm). Animal maintenance and research were conducted in accordance with the guidelines provided by the National Institutes of Health Committee on Laboratory Animal Resources. These subjects were used in the tests below.
Procedure: The terminal 10 cm of the tail was placed into a thermos bottle containing water warmed to 38, 42, 46, 50 or 54° C. The latency in seconds for the animal to remove the tail from the water was used as a measure of nociception.
Following the assessment of baseline thermal sensitivity, thermal hypersensitivity was produced by a 50 μL injection of 0.1 mg prostaglandin E2 (PGE2) into the terminal 1 cm of the tail. Temperature-effect curves were generated before (baseline) and after (15, 30, 60, 90 and 120 min) the PGE2 injection.
The ability of compounds to reverse PGE2-induced thermal hypersensitivity was assessed using a single dose time-course procedure. Under this procedure, a single dose of the compound to be tested was administered intraperitoneally (IP), orally (PO) or intranasally (IN) 30 min before the injection of PGE2. […] sensitivity was assessed 30 min after PGE2 injection. For the IP and PO administration, compound was administered in a volume of 1 ml/kg with the dose administered calculated as mg/kg. For IN administration, rats were lightly anesthetized with 3.5% halothane in O2 and compound or vehicle was administered in a volume of 25 μL solution dropped into each nostril with the dose administered in absolute mg.
Data Analysis: The temperature that produced a half-maximal increase in the tail-withdrawal latency (i.e., T10) was calculated from each temperature-effect curve. The T10 was determined by interpolation from a line drawn between the point above and the point below 10 sec on the temperature-effect curve. For these studies, thermal hypersensitivity was defined as a leftward shift in the temperature-effect curve and a decrease in the T10 value. Reversal of thermal hypersensitivity was defined as a return to baseline of the temperature-effect curve and the T10 value and was calculated according to the following equation: [formula] in which T10^drug+PGE2 is the T10 after a drug in combination with PGE2, T10^PGE2 is the T10 after PGE2 alone, and T10^baseline is the T10 under control conditions. A % MPE value of 100 indicates a complete return to the baseline thermal sensitivity observed without the PGE2 injection.

[2] = monkey, in vivo, iv, 1.1 mg/kg
in vivo = conditions: monkey, po

## O=c1c2c(c1=O)N(CCP(=O)(O)O)CCCN2 [Compound A, [2-(8,9-dioxo-2,6-diazabicyclo[5.2.0]non-1(7)-en-2-yl)ethyl]phosphonic acid]
[1]; rat PGE2-induced thermal hypersensitivity model, intranasal and intraperitoneal found similar
  in vivo efficacy of intranasal and intraperitoneal administration compared with oral administration: ten folds higher
[1]; IP, 1 mg/kg
  % MPE (reversal of PGE2-induced thermal hypersensitivity): −7%
[1]; IP, 3 mg/kg
  % MPE (reversal of PGE2-induced thermal hypersensitivity): 66%
[1]; IP, 10 mg/kg, 10 mg/kg
  % MPE (reversal of PGE2-induced thermal hypersensitivity): 79%
[1]; PO, 10 mg/kg
  % MPE (reversal of PGE2-induced thermal hypersensitivity): 5%
[1]; PO, 30 mg/kg
  % MPE (reversal of PGE2-induced thermal hypersensitivity): 23%
[1]; PO, 100 mg/kg, 100 mg/kg
  % MPE (reversal of PGE2-induced thermal hypersensitivity): 87%
[2]
  AUC: 1.67 ughr/ml
In vivo; 20 mg/kg
  AUC: 1740 ng·h/mL
  Cmax: 147 ng/mL
In vivo; 100 mg/kg
  bioavailability: ~2.5%
